ChEMBL document CHEMBL2062415, “Steroids from Commiphora mukul display antiproliferative effect against human prostate cancer PC3 cells via induction of apoptosis” (Bioorg Med Chem Lett, 2012)

Legend:
DU-145 [1] = assay: Induction of apoptosis in human DU145 cells assessed as accumulation at G0/G1 phase at 10 uM after 48 hrs by propidium iodide staining-based flow cytometric analysis (reference value: 72.11%); type: functional
PC-3 [2] = assay: Induction of apoptosis in human PC3 cells assessed as early apoptotic cells at 10 uM after 48 hrs by annexinV/propidium iodide staining-based FITC analysis relative to control; type: functional
K562 [3] = assay: Induction of apoptosis in human K562 cells assessed as accumulation at G0/G1 phase at 1 uM after 48 hrs by propidium iodide staining-based flow cytometric analysis (reference value: 38.61%); type: functional
MCF7 = assay: Cytotoxicity against human MCF7 cells assessed as cell viability at 10 uM after 24 hrs by MTT assay; type: functional; conditions: MCF7, 24 h, read-out: Activity
DU-145 [4] = assay: Induction of apoptosis in human DU145 cells assessed as early apoptotic cells at 20 uM after 48 hrs by annexinV/propidium iodide staining-based FITC analysis (reference value: 2.34%); type: functional
PC-3 [5] = assay: Induction of apoptosis in human PC3 cells assessed as late apoptotic cells at 5 uM after 48 hrs by annexinV/propidium iodide staining-based FITC analysis relative to control; type: functional
PC-3 [6] = assay: Induction of apoptosis in human PC3 cells assessed as early apoptotic cells at 20 uM after 48 hrs by annexinV/propidium iodide staining-based FITC analysis relative to control; type: functional
DU-145 [7] = assay: Induction of apoptosis in human DU145 cells assessed as accumulation at G2/M phase at 40 uM after 48 hrs by propidium iodide staining-based flow cytometric analysis (reference value: 16.14%); type: functional
K562 [8] = assay: Induction of apoptosis in human K562 cells assessed as accumulation at S phase at 10 uM after 48 hrs by propidium iodide staining-based flow cytometric analysis (reference value: 45.67%); type: functional
PC-3 [9] = assay: Cell cycle arrest in human PC3 cells assessed as accumulation at G2/M phase at 20 uM after 48 hrs by propidium iodide staining-based flow cytometric analysis relative to control; type: functional
PC-3 [10] = assay: Cell cycle arrest in human PC3 cells assessed as accumulation at G2/M phase at 5 uM after 48 hrs by propidium iodide staining-based flow cytometric analysis relative to control; type: functional
PC-3 [11] = assay: Cell cycle arrest in human PC3 cells assessed as accumulation at G0/G1 phase at 10 uM after 48 hrs by propidium iodide staining-based flow cytometric analysis relative to control; type: functional
PC-3 [12] = assay: Cytotoxicity against human PC3 cells after 24 hrs by MTT assay; type: functional, cell-based; conditions: PC-3, 24 h
PC-3 [13] = assay: Induction of apoptosis in human PC3 cells assessed as increase in PARP cleavage product after 48 hrs by Western blot analysis; type: functional, cell-based

CC[C@H](/C=C/[C@@H](C)[C@H]1CC[C@H]2[C@H]3[C@H]([C@H](O)C[C@]12C)[C@@]1(C)CC[C@H](O)CC1=C[C@H]3O)C(C)C
Activity (DU-145 [1]): 65.66% | Activity (PC-3 [2]): 1.49% | Activity (K562 [3]): 41.16% | viability at 10 µM (MCF7): 36% | Activity (DU-145 [4]): 2.12% | Activity (PC-3 [5]): 27.43% | Activity (PC-3 [6]): 3.27% | Activity (DU-145 [7]): 35.85% | Activity (K562 [8]): 48.25% | Activity (PC-3 [9]): 29.84% | Activity (PC-3 [10]): 14.11% | Activity (PC-3 [11]): 52.69% | IC50 (PC-3 [12]): 10.9 µM | Activity (PC-3 [13]): Dose-dependent effect
